Test results as given in patent publication US20040142317A1, “Use of amino acid transporter atbo,+ as a delivery system for drugs and prodrugs” (priority 2003, published 2004).

How the values were obtained:
Assay in all cases: D-[3H]-serine transport in HRPE cells transfected with transporter cDNA
Assay type in all cases: cell-based
Settings in all cases: D-[3H]-serine 5 μM
ATA2 = biological target: T1, ATA2 (Homo sapiens, UniProt Q96QD8)
T1 construct: expressed in transfected cells; host or cells: HRPE cells
T1 sequence (Q96QD8 1-506): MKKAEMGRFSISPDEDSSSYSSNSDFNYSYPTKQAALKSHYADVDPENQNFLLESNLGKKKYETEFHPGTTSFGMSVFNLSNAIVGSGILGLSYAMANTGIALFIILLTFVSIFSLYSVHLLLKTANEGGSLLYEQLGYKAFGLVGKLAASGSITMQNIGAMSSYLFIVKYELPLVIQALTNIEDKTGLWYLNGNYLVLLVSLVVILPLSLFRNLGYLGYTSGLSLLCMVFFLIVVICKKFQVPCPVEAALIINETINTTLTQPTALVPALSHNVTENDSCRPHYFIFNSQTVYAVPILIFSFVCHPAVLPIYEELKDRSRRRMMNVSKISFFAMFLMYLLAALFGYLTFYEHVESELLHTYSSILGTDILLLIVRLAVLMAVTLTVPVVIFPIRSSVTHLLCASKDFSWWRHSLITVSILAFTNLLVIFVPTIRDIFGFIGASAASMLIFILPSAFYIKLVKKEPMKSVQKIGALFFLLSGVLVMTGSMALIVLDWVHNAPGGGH
Experimental: (§1) Transport of D-[^3H]-serine (5 μM) was measured in HRPE cells transfected with cDNA of each transporter.
(§2) The present inventors evaluated the function of 10 different amino acid transporter clones with respect to transport of D-serine in heterologous expression systems (FIG. 11). All of these transporters are expressed in the intestinal tract. The list of the transporters tested include three energy-independent, heterodimeric facilitative transporters (L1, L2, and b^0,+), three subtypes of the Na^+-coupled system A (ATA1, ATA2, and ATA3), two subtypes of the Na^+- and H^+-coupled system N (SN1 and SN2), the Na^+-coupled system ATB^0, and the Na^+- and Cl^−-coupled system ATB^0,+. […] The ability to transport D-serine was the highest for the Na^+- and Cl^−-coupled transporter ATB^0,+. ATB^0,+ belongs to the gene family of neurotransmitter transporters whose transport function is energized by multiple driving forces, namely a Na^+ gradient, a Cl^− gradient, and membrane potential. […] Based on the energetics of these two transport systems, ATB^0,+ is expected to play the leading role in this process.

ATA3 = biological target: T2, ATA3 (Homo sapiens, UniProt Q969I6)
T2 construct: expressed in transfected cells; host or cells: HRPE cells
T2 sequence (Q969I6 1-547): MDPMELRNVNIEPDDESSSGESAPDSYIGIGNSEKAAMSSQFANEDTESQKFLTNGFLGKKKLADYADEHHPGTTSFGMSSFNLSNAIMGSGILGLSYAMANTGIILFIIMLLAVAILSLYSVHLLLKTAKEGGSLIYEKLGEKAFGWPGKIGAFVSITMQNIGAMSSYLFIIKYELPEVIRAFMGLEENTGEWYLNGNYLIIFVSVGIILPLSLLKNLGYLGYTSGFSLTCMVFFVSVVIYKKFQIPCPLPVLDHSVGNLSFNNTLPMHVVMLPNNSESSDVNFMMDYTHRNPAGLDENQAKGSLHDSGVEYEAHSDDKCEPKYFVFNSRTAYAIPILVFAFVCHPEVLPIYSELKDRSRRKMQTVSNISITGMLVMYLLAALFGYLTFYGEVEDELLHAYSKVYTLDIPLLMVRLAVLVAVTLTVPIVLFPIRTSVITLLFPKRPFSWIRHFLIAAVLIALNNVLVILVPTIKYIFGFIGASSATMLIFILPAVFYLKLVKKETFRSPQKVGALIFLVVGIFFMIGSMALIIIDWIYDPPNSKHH
Experimental: as §1, §2

b^0,+AT/rBAT = biological target: T3, b^0,+AT/rBAT (Mus musculus, UniProt Q9QXA6)
T3 construct: expressed in transfected cells; host or cells: HRPE cells
T3 sequence (Q9QXA6 1-487): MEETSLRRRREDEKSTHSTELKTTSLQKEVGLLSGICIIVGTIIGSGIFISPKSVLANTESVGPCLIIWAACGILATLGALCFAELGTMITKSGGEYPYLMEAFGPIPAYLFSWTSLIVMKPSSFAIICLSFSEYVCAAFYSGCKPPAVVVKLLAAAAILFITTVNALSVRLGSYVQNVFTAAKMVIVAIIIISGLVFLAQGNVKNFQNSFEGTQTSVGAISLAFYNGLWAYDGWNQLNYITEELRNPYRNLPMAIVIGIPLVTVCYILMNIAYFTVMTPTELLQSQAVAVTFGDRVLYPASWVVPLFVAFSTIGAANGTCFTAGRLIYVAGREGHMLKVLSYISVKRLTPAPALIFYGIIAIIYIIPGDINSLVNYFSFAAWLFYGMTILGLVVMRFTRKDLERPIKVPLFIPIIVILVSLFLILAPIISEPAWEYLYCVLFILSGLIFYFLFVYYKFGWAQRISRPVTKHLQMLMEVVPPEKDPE
Experimental: as §1, §2

Compound: N[C@H](CO)C(=O)O [D-Serine, D-serine]
- D-serine transport (ATA2): showed D-serine transport activity
- D-serine transport (ATA3): did not
- D-serine transport (b^0,+AT/rBAT): did not exhibit detectable D-serine transport activity
